Legend:
Pythium ultimum = Pythium ultimum / liquid culture (seedling damping off); assay type: cell-based; settings: Globisporangium ultimum, liquid culture in PDB, 24 °C, 2-3 days after application, read-out: control of Pythium ultimum (inhibition of growth, photometric) compared to untreated control
Outline: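 Mycelia fragments and oospores from fresh liquid culture mixed into potato dextrose broth and added to compound in DMSO. Incubated at 24° C.; growth inhibition read photometrically 2–3 days after application.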

Phytophthora infestans = assay: whole plant or invertebrate; assay type: in vivo; settings: in Solanum lycopersicum, foliar, read-out: control of Phytophthora infestans compared to untreated control
Plasmopara viticola = assay: whole plant or invertebrate; assay type: in vivo; settings: foliar, read-out: control of Plasmopara viticola compared to untreated control

COC(=O)Nc1ccc(-c2cnc3c(C)cc(C(=O)N(C)c4ccc(F)c(OC)c4)cn23)cn1 [Compound 95, methyl N-[5-[6-[(4-fluoro-3-methoxy-phenyl)-methyl-carbamoyl]-8-methyl-imidazo[1,2-a]pyridin-3-yl]-2-pyridyl]carbamate]
≥ 80%: inhibition at 20 ppm (Pythium ultimum) | pest or weed control at 200 ppm (Phytophthora infestans) | pest or weed control at 200 ppm (Plasmopara viticola)

COC(=O)Nc1ccc(-c2cnc3ccc(C(=O)N(C)c4ccc(F)c(OC)c4)cn23)cc1 [Compound 158, methyl N-[4-[6-[(4-fluoro-3-methoxy-phenyl)-methyl-carbamoyl]imidazo[1,2-a]pyridin-3-yl]phenyl]carbamate]
≥ 80%: inhibition at 20 ppm (Pythium ultimum) | pest or weed control at 200 ppm (Phytophthora infestans) | pest or weed control at 200 ppm (Plasmopara viticola)

COC(=O)Nc1ccc(-c2cnc3ccc(C(=S)N(C)c4ccc(F)cc4)cn23)cn1 [Compound 164, methyl N-[5-[6-[(4-fluorophenyl)-methyl-carbamothioyl]imidazo[1,2-a]pyridin-3-yl]-2-pyridyl]carbamate]
≥ 80%: inhibition at 20 ppm (Pythium ultimum) | pest or weed control at 200 ppm (Phytophthora infestans) | pest or weed control at 200 ppm (Plasmopara viticola)

COC(=O)Nc1ccc(-c2cnc3ccc(C(=O)N(CC#N)c4ccc(Cl)cc4)cn23)cc1 [Compound 31, methyl N-[4-[6-[(4-chlorophenyl)-(cyanomethyl)carbamoyl]imidazo[1,2-a]pyridin-3-yl]phenyl]carbamate]
≥ 80%: inhibition at 20 ppm (Pythium ultimum) | pest or weed control at 200 ppm (Phytophthora infestans) | pest or weed control at 200 ppm (Plasmopara viticola)

COC(=O)Nc1ccc(-c2cnc3ccc(C(=O)N(CC#N)c4ccc(F)c(OC)c4)cn23)cn1 [Compound 89, methyl N-[5-[6-[cyanomethyl-(4-fluoro-3-methoxy-phenyl)carbamoyl]imidazo [1,2-a]pyridin-3-yl]-2-pyridyl]carbamate]
≥ 80%: inhibition at 20 ppm (Pythium ultimum) | pest or weed control at 200 ppm (Phytophthora infestans) | pest or weed control at 200 ppm (Plasmopara viticola)

Reference: patent publication US20240425500A1 (priority 2021, published 2024)
